Laboratory results: US20110160279A1, “METHODS FOR TREATMENT AND PREVENTION OF OTOTOXICITY BY siRNA” (BOARD OF TRUSTEES OF SOUTHERN ILLINOIS UNIVERSITY, priority 2007, published 2011)
“Also recorded” adds a separate entry of the source.

What was measured:
TRPV1 mRNA = test: Real time RT-PCR of TRPV1 mRNA in UB/OC-1 cells; format: cell-based, mouse; details: cisplatin 2.5 μM, 24 h
Method: (§1) Immortalized organ of Corti cells derived from the mouse, UB/OC-1 cells, were obtained from Dr. Matthew Holley (Institute of Molecular Physiology, Addison Building, Western Bank, Sheffield, UK) and cultured in RPMI 1640 supplemented with 10% Fetalclone II (Hyclone, Logan, Utah) serum and penicillin-streptomycin. Cultures were grown in a 33° C. incubator in 10% CO2.
(§2) RNA was isolated by adding 1 ml TR1 reagent to 100 mg of cochlear or cortical tissue or 0.5 ml TR1 reagent (Sigma, St. Louis, Mo.) per well of each six well plate, according to the manufacturer's instructions.
(§3) Real time reverse transcriptase polymerase chain reaction (RT-PCR): One microgram of total RNA was converted to cDNA using iScript cDNA Synthesis Kit (Bio-Rad, Hercules, Calif.), and qRTPCR was performed as described by (Mukherjea et al, 2006). Gene specific primer pairs were used for the various reactions and mRNA expression levels were normalized to the levels of GAPDH house keeping gene.
(§4) The rodent set of primers and siRNA were based on the homologous sequences in the rat and mouse cDNA sequences. The primers were purchased from Sigma Genosys (St. Louis, Mo.). Purified siRNA duplexes were purchased from Qiagen (Valencia, Calif.).

NOX3 mRNA = test: Real time RT-PCR of NOX3 mRNA in rat cochlea; format: in vivo; details: cisplatin, 72 hrs
Method: Animal procedures and sample collection: Male Wistar rats were used for this study. Pre-ABR's were performed 2-3 days before round window application of siTRPV1 or PBS. […] The cochleas were dissected and used for the preparation of total RNA or total protein extracts, or perfused with 2.5% glutaraldehyde for morphological studies by Scanning Electron Microscopy (SEM's) or 4% paraformaldehyde for immunocytochemistry.
as §2, §3, §4

TRPV1 = format: cell-based, mouse; details: cisplatin 2.5 μM, 24 h
Method: as §1
To further study the role of ROS generated via cochlear NADPH oxidases in the induction of TRPV1 in the cochlea, in vitro experiments were performed using the organ of Corti transformed hair cell line, UB/OC1 (Rivolta et al., Proc. R. Sco. Lond., 265, 1595-1603, 1998). […] Immunolabeling was quantitated by fluorescence imaging using a confocal microscope. […] The immunofluorescence in these groups was reduced by 60 and 70%, respectively (FIG. 2B). […] The increases in expression of these genes were inhibited by DPI (10 μM), indicative of a role or NADPH oxidase activity in the induction of these subunits (FIG. 2G).

TRPV1 protein = test: Western blot of TRPV1 protein in UB-OC1 cells; format: cell-based, mouse; details: cisplatin 2.5 μM
Rac1 = test: Real time RT-PCR of Rac1 mRNA in UB/OC-1 cells; format: cell-based, mouse; details: cisplatin 2.5 μM
Method: as §1, §2, §3, §4

p53 = p53 protein expression in UB/OC-1 cells; format: cell-based, mouse; details: cisplatin, 24 hr
Method: (§5) The increases in these proteins were attenuated by capsazepine (10 μM), implicating TRPV1 in this process.

UB-OC1 cells = test: Apoptosis by TUNEL staining in UB-OC1 cells; format: cell-based, mouse; details: cisplatin 20 μM, 24 h
Method: as §1
Frag-EL DNA fragmentation kit and H2DCFDA dye was purchased from (Calbiochem, San Diego, Calif.). TRPV1 antibody (Neuromics, Edina, Minn.) and secondary goat anti rabbit antibody was purchased from Santa Cruz Biotechnology (Santa Cruz, Calif.).
as §5

N.N.[Cl][Pt][Cl] [cisplatin]
change in TRPV1 mRNA (TRPV1 mRNA): significant increase; also recorded: Three fold increase
change in NOX3 transcript in the cochlea (NOX3 mRNA): small but statistically significant increase
induction in TRPV1 immunoreactivity over control vehicle treated cells (TRPV1): 71±29%
increase in TRPV1 protein by Western blotting (TRPV1 protein): 90%±10%
increase in Rac1 mRNA (Rac1): 2.1 fold
p53 protein (p53): increases
apoptotic cells (TUNEL) (UB-OC1 cells): ~80%
